Results reported in ChEMBL document CHEMBL4477248, “Blinded predictions of binding modes and energies of HSP90-α ligands for the 2015 D3R grand challenge” (Bioorg Med Chem, 2016).
The source made the active and inactive calls. The rule behind the calls is not given here.

These compounds were tested against Heat shock protein HSP 90-alpha (Homo sapiens, UniProt P07900) (assay: Inhibition of HSP90alpha (unknown origin)).
In the case of `Cn1c2c([n+](C)c1CCl)C(=O)c1ccccc1C2=O`, the inhibition is reported as “Active”. Work on `O=c1[nH]c2cc(CNS(=O)(=O)c3cccnc3)ccc2n1-c1cc(Cl)c(O)cc1O` yielded an IC50 of 5 nM. For `CCOC(=O)CC1(C)Oc2ccccc2O1`, the inhibition was “inactive”. For `CC(=O)Oc1ccc2c(=O)c(Cc3ccccc3)c(C)oc2c1OC(C)=O`, the inhibition was “Active”. `O=C1c2ccccc2-c2ccccc21` showed an IC50 greater than 1000 nM. In the case of `CC(=O)Oc1ccc([N+](=O)[O-])c2ccccc12`, the inhibition is reported as “inactive”. In the case of `COc1cc(F)c(Cl)cc1C(=O)c1ccc(OCc2ccccc2)cc1`, the IC50 is reported as greater than 1000 nM. `COC(=O)c1cc(C(=O)c2ccc(OC)cc2)cc(C(=O)OC)c1OC` was tested, and the IC50 was greater than 1000 nM. Compound `CCn1c(=O)n(-c2ccccc2OC)c2ccccc21` has an IC50 greater than 1000 nM. In the case of `O=C1c2ccccc2C(=O)c2c1ccc1nonc21`, the inhibition is reported as “Active”.
